Reference: ChEMBL document CHEMBL5223095, “Structure activity relationship of N-1 substituted 1,5-naphthyrid-2-one analogs of oxabicyclooctane-linked novel bacterial topoisomerase inhibitors as broad-spectrum antibacterial agents (Part-9)” (Bioorg Med Chem Lett, 2022)
Values after ≈ are worked out from the molar mass of the structure shown.

Tests used:
Assay type in all cases: functional
Enterococcus faecium = assay: Antibacterial activity against Vanomycin-resistant Enterococcus faecium assessed as bacterial growth inhibition by CLSI protocol agar-based assay
Acinetobacter baumannii = assay: Antibacterial activity against Acinetobacter baumannii IID876 assessed as bacterial growth inhibition by CLSI protocol agar-based assay
Pseudomonas aeruginosa = assay: Antibacterial activity against Pseudomonas aeruginosa PAO1 assessed as bacterial growth inhibition by CLSI protocol agar-based assay
Streptococcus pneumoniae = assay: Antibacterial activity against Streptococcus pneumoniae IID553 assessed as bacterial growth inhibition by CLSI protocol agar-based assay
Escherichia coli = assay: Antibacterial activity against Escherichia coli ATCC 25922 assessed as bacterial growth inhibition by CLSI protocol agar-based assay
Staphylococcus aureus = assay: Antibacterial activity against methicillin-resistant Staphylococcus aureus OITII-971 assessed as bacterial growth inhibition by CLSI protocol agar-based assay

| Structure (SMILES) | MIC (Enterococcus faecium) [µg/mL] | MIC (Acinetobacter baumannii) [µg/mL] | MIC (Pseudomonas aeruginosa) [µg/mL] | MIC (Streptococcus pneumoniae) [µg/mL] | MIC (Escherichia coli) [µg/mL] | MIC (Staphylococcus aureus) [µg/mL] |
| --- | --- | --- | --- | --- | --- | --- |
| COc1ccc2ncc(F)c(C[C@H](O)C34CCC(NCc5ccc6c(n5)NC(=O)CO6)(CC3)CO4)c2n1 | 0.5 (≈ 0.981 µM) | 0.5 (≈ 0.981 µM) | 8 (≈ 15.7 µM) | 0.05 (≈ 0.0981 µM) | 2 (≈ 3.93 µM) | 0.02 (≈ 0.0393 µM) |
| O=c1ccc2ncc(F)c(CCC34CCC(NCc5cnc(-c6cccnc6)s5)(CC3)CO4)c2n1CCO | > 16 | > 16 | > 32 | > 16 | > 16 | > 16 |
| O=c1ccc2ncc(F)c(C[C@H](O)C34CCC(NC/C=C/c5cc(F)ccc5F)(CC3)CO4)c2n1CCO | 16 (≈ 30.2 µM) | 1 (≈ 1.89 µM) | 64 (≈ 121 µM) | 0.5 (≈ 0.944 µM) | 16 (≈ 30.2 µM) | 0.5 (≈ 0.944 µM) |
| O=c1ccc2ncc(F)c(CCC34CCC(NCc5cnc(-c6ccncc6)s5)(CC3)CO4)c2n1CCO | > 32 | > 32 | > 32 | > 32 | > 32 | > 32 |
| O=c1ccc2ncc(F)c(CCC34CCC(NCc5cnc(-c6ncccn6)s5)(CC3)CO4)c2n1CCO | > 16 | > 16 | > 32 | 4 (≈ 7.45 µM) | > 16 | 1 (≈ 1.86 µM) |
| O=c1ccc2ncc(F)c(CCC34CCC(NCc5cc(-c6cccs6)on5)(CC3)CO4)c2n1CCO | 64 (≈ 122 µM) | 128 (≈ 244 µM) | > 64 | 4 (≈ 7.62 µM) | > 128 | 4 (≈ 7.62 µM) |
| O=C1COc2ccc(CNC34CCC([C@@H](O)Cc5c(F)cnc6ccc(=O)n(CCO)c56)(CC3)OC4)nc2N1 | 2 (≈ 3.71 µM) | 4 (≈ 7.41 µM) | 16 (≈ 29.7 µM) | 0.125 (≈ 0.232 µM) | 32 (≈ 59.3 µM) | 0.031 (≈ 0.0575 µM) |
| O=c1ccc2ncc(F)c(CCC34CCC(NCc5csc(-c6cccs6)n5)(CC3)CO4)c2n1CCO | 16 (≈ 29.6 µM) | 32 (≈ 59.2 µM) | > 32 | 1 (≈ 1.85 µM) | 64 (≈ 118 µM) | 0.5 (≈ 0.925 µM) |
| O=c1ccc2ncc(F)c(CCC34CCC(NC/C=C/c5cc(F)ccc5F)(CC3)CO4)c2n1CCO | 2 (≈ 3.89 µM) | 0.125 (≈ 0.243 µM) | 8 (≈ 15.6 µM) | 0.063 (≈ 0.123 µM) | 2 (≈ 3.89 µM) | 0.031 (≈ 0.0604 µM) |
| O=c1ccc2ncc(F)c(CCC34CCC(NCc5cnc(C6CCCCC6)s5)(CC3)CO4)c2n1CCO | > 32 | > 32 | > 16 | > 32 | > 32 | > 32 |
| O=c1ccc2ncc(F)c(CCC34CCC(NCc5cn(-c6ncccn6)cn5)(CC3)CO4)c2n1CCO | > 32 | > 32 | > 128 | > 32 | > 32 | > 32 |
| O=c1ccc2ncc(F)c(CCC34CCC(NCc5cnc(-c6ccsc6)s5)(CC3)CO4)c2n1CCO | > 32 | > 32 | > 32 | 2 (≈ 3.7 µM) | > 32 | 2 (≈ 3.7 µM) |
| Cn1cc(-c2ncc(CNC34CCC(CCc5c(F)cnc6ccc(=O)n(CCO)c56)(CC3)OC4)s2)cn1 | > 32 | > 32 | > 32 | 8 (≈ 14.9 µM) | > 32 | 2 (≈ 3.71 µM) |
| O=c1ccc2ncc(F)c(C[C@H](O)C34CCC(NCc5cc6c(cn5)OCCO6)(CC3)CO4)c2n1CCO | 32 (≈ 60.8 µM) | 64 (≈ 122 µM) | > 128 | 2 (≈ 3.8 µM) | 128 (≈ 243 µM) | 2 (≈ 3.8 µM) |
| O=c1ccc2ncc(F)c(CCC34CCC(NC[C@@H]5C[C@H]5c5cc(F)ccc5F)(CC3)CO4)c2n1CCO | 16 (≈ 30.3 µM) | 32 (≈ 60.7 µM) | > 64 | 1 (≈ 1.9 µM) | 64 (≈ 121 µM) | 0.5 (≈ 0.948 µM) |
| O=c1ccc2ncc(F)c(CCC34CCC(NCc5cnc(-c6ccccn6)s5)(CC3)CO4)c2n1CCO | > 32 | > 32 | > 16 | > 32 | > 32 | > 32 |
| O=c1ccc2ncc(F)c(CCC34CCC(NCCCc5cc(F)ccc5F)(CC3)CO4)c2n1CCO | 16 (≈ 31 µM) | 1 (≈ 1.94 µM) | 64 (≈ 124 µM) | 0.5 (≈ 0.97 µM) | 16 (≈ 31 µM) | 0.125 (≈ 0.242 µM) |
